Consider 14 compounds from patent US12612407B2, “Imidazo[2,1-f][1,2,4]triazin-4-amine derivatives as TLR7 agonist” (BEIGENE, LTD., priority 2020, dated 2026).

The target of the assay is T1, human TLR7 (Homo sapiens, UniProt Q9NYK1).
T1 construct: host or cells: HEK293 (HEK-Blue hTLR7)
T1 sequence (Q9NYK1 27-1049): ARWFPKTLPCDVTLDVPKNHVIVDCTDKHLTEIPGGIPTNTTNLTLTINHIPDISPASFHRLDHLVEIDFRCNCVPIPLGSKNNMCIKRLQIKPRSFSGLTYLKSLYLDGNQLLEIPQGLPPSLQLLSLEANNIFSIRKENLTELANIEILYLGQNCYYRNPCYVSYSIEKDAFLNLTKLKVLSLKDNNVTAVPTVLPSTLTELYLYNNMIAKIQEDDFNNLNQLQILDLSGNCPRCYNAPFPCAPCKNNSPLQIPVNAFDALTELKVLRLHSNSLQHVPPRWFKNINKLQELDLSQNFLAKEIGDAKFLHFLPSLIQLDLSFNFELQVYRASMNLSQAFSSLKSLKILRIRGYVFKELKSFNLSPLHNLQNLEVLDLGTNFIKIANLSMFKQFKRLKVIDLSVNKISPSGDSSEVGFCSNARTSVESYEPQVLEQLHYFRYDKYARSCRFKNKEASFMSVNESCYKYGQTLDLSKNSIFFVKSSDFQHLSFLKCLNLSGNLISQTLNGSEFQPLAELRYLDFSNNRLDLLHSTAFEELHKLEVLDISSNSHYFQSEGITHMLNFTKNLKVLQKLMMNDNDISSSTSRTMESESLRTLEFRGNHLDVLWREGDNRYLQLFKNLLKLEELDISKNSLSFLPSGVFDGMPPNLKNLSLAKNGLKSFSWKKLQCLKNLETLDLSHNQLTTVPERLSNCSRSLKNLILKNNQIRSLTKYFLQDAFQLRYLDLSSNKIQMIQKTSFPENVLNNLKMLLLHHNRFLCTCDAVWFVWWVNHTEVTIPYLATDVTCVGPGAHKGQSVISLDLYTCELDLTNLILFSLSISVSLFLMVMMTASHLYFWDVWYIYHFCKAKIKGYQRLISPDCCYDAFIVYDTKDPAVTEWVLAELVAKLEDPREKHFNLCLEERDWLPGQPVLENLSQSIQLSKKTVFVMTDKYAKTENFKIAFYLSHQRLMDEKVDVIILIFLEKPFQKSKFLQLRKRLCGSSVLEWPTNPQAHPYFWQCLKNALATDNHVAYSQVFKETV
Kind of assay: HEK293-Blue hTLR7 Reporter Assay (QUANTI-BLUE, SEAP readout). To be noted: HEK-Blue-hTLR7 cells, 24 hrs treatment, Table 1, B1-B232. It is filed as cell-based. The method, then: HEK293-Blue hTLR7 Reporter Assay: HEK-Blue-hTLR7 cell line (Invivogen, Cat. No. hkb-htlr7) was designed so that the expression of the secreted embryonic alkaline phosphatase (SEAP) was induced by activating NF-κ and AP-1 via stimulating human TLR7 with TLR7 agonists. HEK-Blue-hTLR7 cells were seeded at a density of 4×10^4 cells/well in a volume of 180 μL in a 96-well plate in DMEM (Cat. No. 11965-092) supplemented with 10% (v/v) heat-inactivated fetal bovine serum (FBS) (Gibco, 10099-1441), 100 U/ml penicillin and 100 μg/ml streptomycin (Gibco, 15140122) containing 50 U/mL penicillin, […] and 10% (v/v) heat-inactivated fetal bovine serum. The cells were settled for 5 hrs, then treated with increasing amounts of tested compounds at 37° C. for 24 hrs. Then 20 μL of the supernatant from each well was incubated with 180 μL Quanti-blue substrate solution at 37° C. for 10-30 mins before the activity of the SEAP was determined at 620-655 nm using a spectrophotometer. The EC50 value for each compound was calculated with GraphPad Prism software using the sigmoidal dose-response function.
As to `CCCCOc1nc(N)c2ncc(Cc3ccc(N4CCNCC4)cn3)n2n1` [Compound B16, 2-butoxy-7-((5-(piperazin-1-yl)pyridin-2-yl)methyl)imidazo[2,1-f][1,2,4]triazin-4-amine], it took 1440 nM to reach a half-maximal effect (EC50).
Next, `CCCCOc1nc(N)c2ncc(Cc3cnc(C4CCNCC4)c(OC)c3)n2n1` [Compound B17, 2-butoxy-7-((5-methoxy-6-(piperidin-4-yl)pyridin-3-yl)methyl)imidazo[2,1-f][1,2,4]triazin-4-amine]: 149 nM.
Next, `CCCCNc1nc(N)c2ncc(Cc3ccc(C4CCNCC4)cc3)n2n1` [Compound B18, N2-butyl-7-(4-(piperidin-4-yl)benzyl)imidazo[2,1-f][1,2,4]triazine-2,4-diamine]: 171 nM.
Next, `CCCCOc1nc(N)c2ncc(Cc3ccc(C4CCNCC4)nc3)n2n1` [Compound B19, 2-butoxy-7-((6-(piperidin-4-yl)pyridin-3-yl)methyl)imidazo[2,1-f][1,2,4]triazin-4-amine]: 227 nM; `CCCCOc1nc(N)c2ncc(Cc3ccc(C4CCCNC4)cc3)n2n1` (centres unmarked) [Compound B20, 2-butoxy-7-(4-(piperidin-3-yl)benzyl)imidazo[2,1-f][1,2,4]triazin-4-amine]: 7990 nM; `Cc1cc(Cc2cnc3c(N)nc(OCCC(C)C)nn23)cnc1N1CCNCC1` [Compound B22, 2-(isopentyloxy)-7-((5-methyl-6-(piperazin-1-yl)pyridin-3-yl)methyl)imidazo[2,1-f][1,2,4]triazin-4-amine]: 496 nM.
In turn, `CCCCCOc1nc(N)c2ncc(Cc3cnc(N4CCNCC4)c(C)c3)n2n1` [Compound B23, 7-((5-methyl-6-(piperazin-1-yl)pyridin-3-yl)methyl)-2-(pentyloxy)imidazo[2,1-f][1,2,4]triazin-4-amine] yielded an EC50 of 487 nM. This EC50 and that of the compound before are within 1.5-fold of each other.
Take `CCCCOc1nc(N)c2ncc(Cc3cnc(N4CCN(C(=O)CN)CC4)c(C)c3)n2n1` [Compound B24, 2-amino-1-(4-(5-((4-amino-2-butoxyimidazo[2,1-f][1,2,4]triazin-7-yl)methyl)-3-methylpyridin-2-yl)piperazin-1-yl)ethan-1-one]: a half-maximal effect (EC50) was put at 210 nM.
Next, `Cc1cc(Cc2cnc3c(N)nc(OCCOc4ccccc4)nn23)cnc1N1CCNCC1` [Compound B25, 7-((5-methyl-6-(piperazin-1-yl)pyridin-3-yl)methyl)-2-(2-phenoxyethoxy)imidazo[2,1-f][1,2,4]triazin-4-amine]: over 10000 nM; `CCCCOc1nc(N)c2ncc(Cc3ccc(N4CCNCC4)c(OCC)c3)n2n1` [Compound B26, 2-butoxy-7-(3-ethoxy-4-(piperazin-1-yl)benzyl)imidazo[2,1-f][1,2,4]triazin-4-amine]: 295 nM.
`CCCCOc1nc(N)c2ncc(Cc3ccc(N4CCNCC4)c(OC(F)(F)F)c3)n2n1` [Compound B27, 2-butoxy-7-(4-(piperazin-1-yl)-3-(trifluoromethoxy)benzyl)imidazo[2,1-f][1,2,4]triazin-4-amine] displayed a 50% effective concentration (EC50) of 971 nM. This EC50 is about 3.3-fold higher than that of the compound before.
Under `Cc1cc(Cc2cnc3c(N)nc(O)nn23)cnc1N1CCNCC1` [Compound B29, 4-amino-7-((5-methyl-6-(piperazin-1-yl)pyridin-3-yl)methyl)imidazo[2,1-f][1,2,4]triazin-2-ol] stands over 10000 nM; under `Cc1cc(Cc2cnc3c(N)nc(OCCc4ccccc4)nn23)cnc1N1CCNCC1` [Compound B30, 7-((5-methyl-6-(piperazin-1-yl)pyridin-3-yl)methyl)-2-phenethoxyimidazo[2,1-f][1,2,4]triazin-4-amine], over 10000 nM; under `Cc1cc(Cc2cnc3c(N)nc(OCCCc4ccccc4)nn23)cnc1N1CCNCC1` [Compound B31, 7-((5-methyl-6-(piperazin-1-yl)pyridin-3-yl)methyl)-2-(3-phenylpropoxy)imidazo[2,1-f][1,2,4]triazin-4-amine], over 10000 nM.
